Data on 14 compounds can be found in PubChem BioAssay (NCI).

Some test systems named below: SK-OV-3 ovarian; CCRF-CEM leukemia; COLO 205 colon; MALME-3M melanoma; HOP-62 NSCLC; SF-268 CNS; OVCAR-5 ovarian; SK-MEL-5 melanoma; UO-31 renal; A549 NSCLC; BT-549 breast.
Assay in all cases: growth of human tumour cells (NCI), 48 h

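Method: 48-hour compound exposure of cells in 96-well plates, five concentrations, linear interpolation of endpoints. GI50 is the concentration that inhibits growth by half. The concentration for full growth arrest is given as TGI.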

For the compound `CSCCC(NC(=O)C(Cc1ccccc1)NC(=O)CNC(=O)CNC(=O)C(N)Cc1ccc(O)cc1)C(=O)O` (stereo unspecified), the TGI in the test on SK-OV-3 ovarian, in the test on CCRF-CEM leukemia, with COLO 205 colon, in the test on MALME-3M melanoma, in the test on HOP-62 NSCLC and with SF-268 CNS was greater than 100 µM throughout. Besides, the TGI in the test with OVCAR-5 ovarian, in the test with SK-MEL-5 melanoma, with UO-31 renal and in the test on A549 NSCLC was greater than 100 µM throughout.
For `COc1ccc(C2CCc3nc4nc(N)nc(N)c4cc3C2)cc1` (stereo unspecified), the TGI is 25.3 µM with SK-OV-3 ovarian; 70.6 µM with BT-549 breast; greater than 100 µM in the test with COLO 205 colon; greater than 100 µM with MALME-3M melanoma; 33.9 µM in the test on HOP-62 NSCLC; greater than 100 µM in the test with SF-268 CNS. Moreover, the TGI in the test with OVCAR-5 ovarian, with SK-MEL-5 melanoma and with A549 NSCLC was greater than 100 µM each time.
Take `CCOC(=O)C(Cc1ccc2c(c1)CCC2)(Cc1ccc2c(c1)CCC2)C(=O)OCC`: the TGI in the test on SK-OV-3 ovarian was greater than 100 µM; in the test on CCRF-CEM leukemia it was greater than 100 µM; in the test with MALME-3M melanoma, 89.2 µM; with HOP-62 NSCLC, greater than 100 µM; with SF-268 CNS, greater than 100 µM; in the test with OVCAR-5 ovarian it was greater than 100 µM. In addition, the TGI with SK-MEL-5 melanoma, in the test on UO-31 renal and in the test with A549 NSCLC was greater than 100 µM each time.
For `COc1ccc2nc(-c3ccc(OC(=O)N(C)C)cc3)cn2c1`, the TGI in the test with SK-OV-3 ovarian, in the test on CCRF-CEM leukemia, in the test with COLO 205 colon, with MALME-3M melanoma, in the test on HOP-62 NSCLC and with SF-268 CNS was greater than 100 µM in each case. Moreover, the TGI in the test on OVCAR-5 ovarian, in the test on SK-MEL-5 melanoma and in the test on A549 NSCLC was greater than 100 µM in each case.
On to `CC1=CC(c2ccccc2)OP1(=O)c1ccccc1` (stereo unspecified), for which the TGI in the test on SK-OV-3 ovarian, in the test with COLO 205 colon, with MALME-3M melanoma, in the test on HOP-62 NSCLC, with SF-268 CNS and with OVCAR-5 ovarian was greater than 100 µM throughout. Further, the TGI in the test with SK-MEL-5 melanoma and with A549 NSCLC was greater than 100 µM each time.
Take `CSc1ccc2c(c1)c(CCN)c(C)n2Cc1ccc(Cl)c(Cl)c1`: the GI50 was 1.69 µM with SK-OV-3 ovarian, 1.51 µM in the test on OVCAR-5 ovarian and 1.59 µM in the test on UO-31 renal. Also, the TGI was determined as 3.09 µM with SK-OV-3 ovarian, 3.13 µM in the test on OVCAR-5 ovarian and 3.01 µM in the test on UO-31 renal.
For `CC(/C=C/c1ncccc1OCCCCCC(=O)O)=N\NC1=NCCN1`, the TGI in the test with SK-OV-3 ovarian, with CCRF-CEM leukemia, in the test with COLO 205 colon, in the test on MALME-3M melanoma, with HOP-62 NSCLC and in the test with SF-268 CNS was greater than 100 µM throughout. For the same compound, the TGI in the test on OVCAR-5 ovarian, with UO-31 renal and in the test with A549 NSCLC was greater than 100 µM throughout.
For the compound `COCCO`, the TGI in the test with SK-OV-3 ovarian, with COLO 205 colon, in the test on MALME-3M melanoma, with HOP-62 NSCLC, in the test on SF-268 CNS and in the test with OVCAR-5 ovarian was greater than 100 µM in each case. In addition, the TGI in the test on SK-MEL-5 melanoma, with UO-31 renal and in the test on A549 NSCLC was greater than 100 µM throughout.
As to `CSC1=N/C(=C\c2cccs2)C(=O)N1CN1CCOCC1`, the TGI in the test on SK-OV-3 ovarian, with CCRF-CEM leukemia, with COLO 205 colon, with MALME-3M melanoma, with HOP-62 NSCLC and with SF-268 CNS was greater than 100 µM throughout. For the same compound, the TGI in the test with OVCAR-5 ovarian, in the test with SK-MEL-5 melanoma, in the test with UO-31 renal and in the test with A549 NSCLC was greater than 100 µM in each case.
Regarding `COC1/C=C/C(C)C(OC)CC(O)/C=C/C(C)C(C(C)C(OC)C(C)CCC(=O)C(C)C(C/C=C/N(C)C=O)OC)OC(=O)/C=C/C=C(\C)CC(OC)C(OC)C2=CC(=O)O[C@@H](C(C)C(OC)C1)[C@H]2O` (stereo partly specified), the TGI stood at 0.104 µM with SK-OV-3 ovarian; 0.163 µM in the test with BT-549 breast; 0.115 µM in the test with MALME-3M melanoma; 0.0673 µM in the test with HOP-62 NSCLC; 0.129 µM in the test on SF-268 CNS; 0.118 µM with OVCAR-5 ovarian. The TGI in the test on SK-MEL-5 melanoma was 0.0763 µM; with UO-31 renal, 0.0761 µM; in the test with A549 NSCLC, 0.497 µM.
Take `Nc1[nH]c(=O)nc2sc3c(c12)CCCC3`: the TGI in the test on SK-OV-3 ovarian, in the test on CCRF-CEM leukemia, with COLO 205 colon, with MALME-3M melanoma, in the test on HOP-62 NSCLC and with SF-268 CNS was greater than 100 µM throughout. The TGI in the test with OVCAR-5 ovarian, in the test with SK-MEL-5 melanoma, in the test on UO-31 renal and with A549 NSCLC was greater than 100 µM throughout.
In the case of `O=C(CSc1nc2ccc(I)cc2c(=O)n1Cc1ccccc1)N/N=C/c1ccccc1`, the TGI is 31.6 µM with SK-OV-3 ovarian; greater than 100 µM in the test with CCRF-CEM leukemia; greater than 100 µM in the test on COLO 205 colon; 20.9 µM in the test with HOP-62 NSCLC; 32.4 µM with SF-268 CNS; greater than 100 µM in the test with OVCAR-5 ovarian. For the same compound, the TGI with SK-MEL-5 melanoma and in the test on A549 NSCLC was greater than 100 µM throughout.
With `C#CCNC(=O)CCC(N)C(=O)O` (stereo unspecified), the TGI with SK-OV-3 ovarian, with CCRF-CEM leukemia, in the test on COLO 205 colon, in the test on MALME-3M melanoma, with HOP-62 NSCLC and in the test on SF-268 CNS was greater than 100 µM each time. Moreover, the TGI in the test with OVCAR-5 ovarian, in the test with SK-MEL-5 melanoma, in the test with UO-31 renal and in the test on A549 NSCLC was greater than 100 µM in each case.
Regarding `COc1cc(Cn2c3c(c4c(CN(C)C)c(O)ccc42)C(=O)c2ccccc2C3=O)cc(OC)c1`, the TGI in the test on SK-OV-3 ovarian stood at 48.3 µM; in the test on CCRF-CEM leukemia, 52.4 µM; in the test on COLO 205 colon, 85.3 µM; in the test with MALME-3M melanoma it was 76.2 µM; in the test on HOP-62 NSCLC it was 30.9 µM; in the test with SF-268 CNS it was 27.9 µM. The TGI in the test with OVCAR-5 ovarian turned out to be 42.5 µM; in the test with SK-MEL-5 melanoma, 26 µM; in the test with UO-31 renal, 27.7 µM; with A549 NSCLC, 35.1 µM.
